Measurements reported in patent US20210069135A1, “THERAPEUTIC APPROACHES FOR TREATING EPILEPSY AND RELATED DISORDERS THROUGH REDUCTION OF EPILEPTOGENESIS” (PHARNEXT, priority 2012, published 2021).
“Also recorded” adds a separate entry of the source.

Columns and labels:
neuronal cortical cells = assay: Glutamate toxicity assay on primary cortical neuron cells (neurite network, neurofilament immunostaining); assay type: cell-based, rat; conditions: for protection against glutamate toxicity, drug alone: torasemide or baclofen alone at the same doses as in the combination of FIG. 4 (400 nM, 2 μM), not significant
Experimental: Rat cortical neurons were cultured as described by Singer et al.. Briefly, pregnant female rats of 15 days gestation were killed by cervical dislocation (Rats Wistar) and the fetuses were removed from the uterus. The cortex was removed and placed in ice-cold medium of Leibovitz (L15) containing 2% of penicillin 10,000 U/mL and streptomycin 10 mg/mL and 1% of bovine serum albumin (BSA). Cortices were dissociated by trypsin for 20 min at 37° C. (0.05%). The reaction was stopped by the addition of Dulbecco's modified Eagle's medium (DMEM) containing DNasel grade II and 10% of foetal calf serum (FCS). Cells were then mechanically dissociated by 3 serial passages through a 10 mL pipette and centrifuged at 515×g for 10 min at +4° C. The supernatant was discarded and the pellet of cells was re-suspended in a defined culture medium consisting of Neurobasal supplemented with B27 (2%), L-glutamine (0.2 mM), 2% of PS solution and 10 ng/mL of BDNF. Viable cells were counted in a Neubauer cytometer using the trypan blue exclusion test. The cells were seeded at a density of 30 000 cells/well in 96 well-plates (wells were pre-coated with poly-L-lysine (10 μg/mL)) and were cultured at +37° C. in a humidified air (95%)/CO2 (5%) atmosphere.
After 12 days of neuron culture, drugs of the candidate combinations were solved in culture medium (+0.1% DMSO). Candidate drugs or drug combinations were then pre-incubated with neurons for 1 h before the glutamate injury. Glutamate was added for 20 min, to a final concentration of 40 μM in presence of candidate drugs or drug combinations. At the end of the incubation, medium was changed with medium with candidate combination but without glutamate. The culture was fixed 24 h after glutamate injury. MK801 (Dizocilpinehydrogen maleate, 77086-22-7-20 μM) was used as a positive control.
After permeabilization with saponin (Sigma), cells were blocked for 2 h with PBS containing 10% goat serum, then the cells were incubated with mouse monoclonal primary antibody against Neurofilament antibody (NF, Sigma).
Nuclei of cells were labeled by a fluorescent marker (Hoechst solution, SIGMA), and neurite network quantified. Six wells per condition were used to assess neuronal survival in 3 different cultures.

[1] = tested on: PTZ-induced seizures in mice; assay: Pentylenetetrazol (PTZ)-induced seizure in mice model; assay type: in vivo, CD-1 mice
Experimental: Four to five week old male CD-1 mice of about 20 g (Janvier; Le Genest St Isle—France) were acclimatized to the environment for one week before the experiment.
They were group-housed (5-10 mice per cage) and maintained in a room with controlled temperature (21-22° C.) and a reversed light-dark cycle (12 h/12 h; lights on: 17:30-05:30; lights off: 05:30-17:30) with food and water available ad libitum.
PTZ-induced seizures in mice are an accepted in vivo model for the screening of antiepileptic drugs. PTZ is a blocker of the chloride ionophore complex to the GABAA receptor that has […] effects after repeated or single dose administration and also affects several neurotransmitter systems, such as the GABAergic and glutamatergic systems. Seizures were induced by administration of 100 mg/kg (subcutaneously) of PTZ. Levetiracetam (500 mg/kg), used as an internal positive control, was administered 60 min before the PTZ injection. Drugs of the invention were injected per os 2 h before PTZ administration. Acamprosate calcium (two molecules of acamprosate for a calcium ion) was tested at three different doses.
As already stated, 100 mg/kg PTZ were injected subcutaneously and the animals were then observed for 1 h after injection. The latencies for clonic seizures, tonic seizures, and death were monitored. Clonic seizures consist in rhythmic contractions of forelimbs and/or hindlimbs. Tonic seizures consist in rigid extension of the forelimbs and/or hindlimbs.
Analysis of variance (ANOVA) was performed on the result data. Fisher's Protected Least Significant Difference was used for pairwise comparisons. Statistical difference was assessed by Fisher's exact test. p values≤0.05 were considered significant.

[2] = baclofen 2 μM alone or torasemide 400 nM alone, FIG. 4
[3] = sulfisoxazole 6.8 nM alone or torasemide 400 nM alone, FIG. 2
[4] = cinacalcet 64 μM alone or mexiletine 25.6 μM alone, FIG. 1
[5] = baclofen 400 nM alone or acamprosate 1.6 nM alone, FIG. 3
[6] = levetiracetam 500 mg/kg 60 min before PTZ
[7] = high dose of acamprosate calcium
[8] = low dose of acamprosate calcium

`Cc1cccc(Nc2ccncc2S(=O)(=O)NC(=O)NC(C)C)c1` [torasemide, Torasemide] was tested, and the “effect on glutamate intoxication, drug alone” value (“effect” for short) (neuronal cortical cells; [2]) was “no significant results; also recorded: no statistically significant effect”, the “effect” value (neuronal cortical cells; [3]) was “no significant effect” and the “protection against glutamate toxicity, drug alone” value (neuronal cortical cells) was 8%.

`Cc1cccc(C)c1OCC(C)N` (stereo not shown) [mexiletine, Mexiletine] was tested, and the “effect” value (neuronal cortical cells; [4]) was “no protection at all; also recorded: no significant effect”.

In the case of `CC(=O)NCCCS(=O)(=O)O` [acamprosate, Acamprosate], the “effect” value (neuronal cortical cells; [5]) is reported as “no statistically significant effect”.

In the case of `Cc1noc(NS(=O)(=O)c2ccc(N)cc2)c1C` [sulfisoxazole, Sulfisoxazole], the “effect” value (neuronal cortical cells; [3]) is reported as “no significant effect”.

With `CC[C@@H](C(N)=O)N1CCCC1=O` [levetiracetam] the “PTZ-induced death (in words)” value [1, 6] was “reversed”, the “PTZ-induced tonic seizure (in words)” value [1, 6] was “reversed” and the “time to clonic seizure (in words)” value ([1]; levetiracetam 500 mg/kg 60 min before PTZ 100 mg/kg s.c., FIG. 6) was “no significant effect”.

In the case of `CC(=O)NCCCS(=O)(=O)[O-].CC(=O)NCCCS(=O)(=O)[O-].[Ca+2]` [acamprosate calcium], the “latency to clonic seizure (in words)” value ([1]; acamprosate calcium 0.032 mg/kg, PTZ 100 mg/kg s.c., not shown) is reported as “increase”, the “latency to clonic seizure (in words)” value ([1]; acamprosate calcium 0.5 mg/kg per os 2 h before PTZ 100 mg/kg s.c., FIG. 6, p<0.05 vs vehicle) is reported as “significant increase” and the “latency to clonic seizure (in words)” value ([1]; acamprosate calcium 0.5 mg/kg per os 2 h before PTZ 100 mg/kg s.c., FIG. 6, p<0.05 vs vehicle, listed as Acamprosate calcium) is reported as “efficient in increasing”. For the same compound, the “reduction of prevalence of death” value [1, 7] was 38%, the “reduction of prevalence of mice with clonic seizure” value [1, 7] was 30% and the “reduction of prevalence of mice with tonic seizure” value [1, 7] was 38%. The “reduction of prevalence of death” value [1, 8] was 25%, the “reduction of prevalence of mice with clonic seizure” value [1, 8] was 20% and the “reduction of prevalence of mice with tonic seizure” value [1, 8] was 25%.

With `C[C@@H](NCCCc1cccc(C(F)(F)F)c1)c1cccc2ccccc12` [cinacalcet, Cinacalcet] the “effect” value (neuronal cortical cells; [4]) was “no protection at all; also recorded: no significant effect”.

For `NCC(CC(=O)O)c1ccc(Cl)cc1` (stereo not shown) [baclofen, Baclofen], the “effect” value (neuronal cortical cells; [5]) was “no statistically significant effect”, the “effect” value (neuronal cortical cells; [2]) was “no significant results; also recorded: no statistically significant effect” and the “protection against glutamate toxicity, drug alone” value (neuronal cortical cells) was 13%.
